Reference: patent publication US7824872B2, “Pharmaceutical agents” (Theravalues Corporation, priority 2003, dated 2010)
Read-outs that look alike come from different tables or passages of the source. Where a SMILES comes first, the peptide text is derived from it. [ ]: non-standard residue; d: D form. Nle = CCCC[C@H](N)C(=O)O

Assays:
Format in all cases: cell-based
Pim-1 = assay: Western blotting of Pim-1 in cells cultured with a proteasome inhibitor; details: PCI-43 cells, normoxia, 50 μM ALLN, 6 and 12 hours
Procedure: The cells used were HCT116 (colon cancer cell line), HePG2 (liver cancer cell line), KMP-4 (pancreatic cancer cell line), PCI-10 (pancreatic cancer cell line), PCI-35 (pancreatic cancer cell line), and PCI-43 (pancreatic cancer cell line). Each type of cell was cultured for 16 hours under hypoxia (1% oxygen, 5% carbondioxide), or normoxia (20% oxygen, 5% carbondioxide). RNA was extracted from the cultured cells using Trizol reagent, and proteins were extracted from the cultured cells using 1% NP-40 lysis buffer ([…] pH7.5, […], 2 μM EDTA, 1 μM EGTA, 50 μM NaF, 1 μM Na3VO4, 1 mM PMSF).
Proteins were detected by Western blotting. More specifically, the above-mentioned samples were electrophoresed through 12% polyacrylamide gels, and then blotted onto nitrocellulose membranes. The membranes were blocked with blocking buffer (5% skim milk, in physiological Tween-phosphate buffer), reacted with anti-Pim-1 antibody for one hour, then incubated with peroxidase-conjugated goat anti-mouse IgG secondary antibody, and detected using an ECL detection kit (Amersham).
Whether or not Pim-1 is degraded by proteases under normoxia was investigated. PCI-43 cells were cultured under hypoxia and normoxia. Cells cultured under hypoxia were sampled before culturing, and after culturing for 4, 12, and 24 hours. […]

PCI-43 cells [1] = assay: Number of live cells after 48 hours of treatment with anticancer agents (IC50); details: concentration halving the number of live cells
Procedure: (§1) The sensitivity of solid cancer cells to anticancer agents under low and normal oxygen partial pressures was investigated. Three types of solid pancreatic cancer cell lines (PCI-35 cells, KMP-4 cells, and PCI-43 cells) were used as the cells. For each type of cell, 2×10^3 cells were cultured for six hours in the presence of 50 μg/mL of cisplatin under low oxygen partial pressure (1% oxygen, 5% carbondioxide; hereinafter, the same values in the Examples) or normal oxygen partial pressure (20% oxygen, 5% carbondioxide; hereinafter, the same values in the Examples). After culturing, the cells were washed twice with physiological phosphate buffer (pH7.4) to prepare samples. Dulbecco's Modified Eagle's Medium/F12 was used as the medium for culturing (hereinafter, unless particularly specified, use of the same medium is assumed).
Using gemcitabine, adriamycin, and cisplatin, and using PCI-43 cells, measurements were made as in Example 1. The concentrations of gemcitabine and adriamycin were 0.1 to 1 μmol and 0.1 to 5 μmol, respectively. IC50 values were calculated from the measured results, as shown below.
The number of live cells was determined after 48 hours of treatment with various concentrations of anticancer agents, and the concentrations of anticancer agents needed to half the number of live cells present when the various anticancer agents were not added were defined as IC50 values.

[2] = system: PCI-35 cells, KMP-4 cells, and PCI-43 cells; assay: FACS analysis of apoptosis (PI / anti-anexin V staining) under hypoxia and normoxia, three pancreatic cancer cell lines; details: 50 μg/mL cisplatin, six hours, PCI-35, KMP-4 and PCI-43 cells
Procedure: as §1
(§2) The cells described above were stained with propidium iodide (PI) and FITC-conjugated anti-anexin V, and FACS analysis was performed using FACS calibur (Becton Dickinson).
In FIG. 1, “Normoxia” means under normal oxygen partial pressure, and “Hypoxia” means under low oxygen partial pressure (the same hereinafter). The FACS analyses in the Examples can be described as staining of cells with PI and anti-anexin V, and sorting of cells based on the intensity of staining to show distributions such as those in FIG. 1. […]

PCI-43 cells [3] = assay: FACS analysis of apoptosis (PI / anti-anexin V staining) under hypoxia and normoxia; details: 50 μg/mL cisplatin, 12 and 24 hours
Procedure: as §1, §2
In FIG. 1, “Normoxia” means under normal oxygen partial pressure, and “Hypoxia” means under low oxygen partial pressure (the same hereinafter). […]
PCI-43 cells were cultured for up to 24 hours under the same conditions as in Example 1. Samples obtained before culturing, and after culturing for 12 hours and 24 hours were analyzed as in Example 1. […]

[4] = hypoxia (1% oxygen, 5% carbondioxide), read-out: IC50 (μM), Hypoxia
[5] = normoxia (20% oxygen, 5% carbondioxide), read-out: IC50 (μM), Normoxia

Row | IC50 (PCI-43 cells [1]; [4]) | IC50 (PCI-43 cells [1]; [5]) | SMILES | amount of Pim-1 (Western blotting) (Pim-1) | induction of apoptosis under normoxia compared with hypoxia [2] | proportion of apoptotic cells under hypoxia compared with normoxia (PCI-43 cells [3])
1 |  |  | CCCC[C@@H](C=O)NC(=O)[C@H](CC(C)C)NC(=O)[C@H](CC(C)C)NC(C)=O [ALLN, N-acetyl-L-leucinyl-L-leucinyl-L-norleucinal] (Ac-Leu-Leu-[Nle]-aldehyde) | the amount of Pim-1 also increased with time under normoxia |  | 
2 | 1.9 µM | 0.3 µM | COc1cccc2c1C(=O)c1c(O)c3c(c(O)c1C2=O)C[C@@](O)(C(=O)CO)C[C@@H]3O[C@H]1C[C@H](N)[C@H](O)[C@H](C)O1 [Adriamycin, adriamycin] |  |  | 
3 | 1.56 µM | 0.272 µM | Nc1ccn([C@@H]2O[C@H](CO)[C@@H](O)C2(F)F)c(=O)n1 [Gemcitabine, gemcitabine] |  |  | 

Row | SMILES | IC50 (PCI-43 cells [1]; [4]) | IC50 (PCI-43 cells [1]; [5]) | amount of Pim-1 (Western blotting) (Pim-1) | induction of apoptosis under normoxia compared with hypoxia [2] | proportion of apoptotic cells under hypoxia compared with normoxia (PCI-43 cells [3])
4 | N.N.[Cl][Pt][Cl] [Cisplatin, cisplatin] | 27.7 µM | 18.6 µM |  | approximately twice that under hypoxia | approximately half that under normoxia
